Results: patent US12365643B2, “Phenoxy carboxylic acid compounds and medical uses thereof” (QINGDAO RISING BIOTECHNOLOGY CO., LTD, priority 2018, dated 2025)

Tests used:
PGC1α = PGC1α mRNA expression by real-time quantitative PCR in HepG2; assay type: cell-based, human; details: 1 μM, 6 hours, HepG2 (FIG. 5C)
Excerpt: (§1) Peroxisome proliferation factor activated receptor (PPAR) is an important nuclear receptor that regulates glycolipid metabolism, including three subtypes: α, β/δ and γ. Peroxisome proliferator-activated receptor γ coactivator 1α (PGC-1α) is its auxiliary transcriptional activator. Acyl-CoA oxidase 1 (ACOX1) is the first rate-limiting enzyme for fatty acid β oxidation. Fatty acid binding protein 1 (FABP1) is highly expressed in liver, and can bind fatty acid, heme and other molecules to reduce their toxicity and damage. Up-regulating the expression level of these genes helps to improve the body's metabolism, and their agonists are an important class of anti-metabolic drugs. After the compound of the present application (1 μM) and the control drug gemfibrozil (1 μM) were incubated with human liver cancer cells HepG2 for 6 hours, real-time fluorescent quantitative PCR method was used to determine the relative expression of mRNA of related genes in the cells.
(§2) The company which synthesized the primers was Suzhou Hongxun Biotechnology Co., Ltd. Tranzol reagent (Tranzol total RNA extraction reagent, TransGen Biotech) was used to extract total RNA from tissues. 5× All-In-One RT MasterMix reverse transcription kit (Abcam, USA) and real-time quantitative PCR Master Mix (Aidlab Biotechnologies Co., Ltd) were used. Bio-Rad CFX Connect™ Real-Time PCR Detection System for qPCR was used, and 2^−ΔΔCT method was used for data analysis. The expression level of mRNA in the normal control group was set to 1, and the relative expression level of mRNA in the administration group was calculated, so as to confirm whether the active compound affected the PPAR pathway, thereby further regulating lipid metabolism.

[1] = tested on: antioxidant response element (ARE); assay: ARE luciferase reporter gene activity in HepG2 cells; assay type: cell-based, human; details: 50 μM, HepG2 stably transfected (FIG. 4)
Description: NF-κB was the most important inflammatory signal pathway. SW480 human colon cancer cells stably transfected with a luciferase reporter gene driven by NF-κB were used to determine the effects of the compound of the present application and the control drug gemfibrozil on NF-κB transcriptional activity, which comprised the following steps. • (1) Cells stably transfected with NF-κB Luc were cultivated to exponential growth, inoculated at a culture medium concentration of 1×10^5/[…] in a 24-well plate, and cultured for 24 hours, the medium was discarded, and the test compound or gemfibrozil formulated with serum-free medium at 50 μM were added to the 24-well plate and incubation was continued for 6 hours. After washing once with 200 μL of PBS, 100 μL of reporter gene cell lysis buffer was added, the cells were lysed on ice for 10 minutes, and the cell lysate was collected by pipetting. • (2) After centrifugation was performed at 8000 rpm and 4° C. for 10 min, the supernatant was pipetted for fluorescence assay. • (3) The measurement gap time of chemiluminescence analyzer was set to 2 s and the measurement time was set to 10 s. Automatic sample injection was adopted, 50 μL of luciferase assay reagent was added to each well. The reporter gene cell lysis buffer was used as a blank control. • (4) After centrifugation, the supernatant was taken, and the BCA method was used to determine the protein concentration so as to normalize the reporter gene results.
In this experimental example, the luciferase activity in HepG2 human liver cancer cells stably transfected with a luciferase reporter gene driven by antioxidant response element (ARE) was determined to evaluate the regulatory effects of the compound of the present application and gemfibrozil on the transcriptional activity of transcription factor Nrf2 and the cellular oxidative stress response signals, in which the operation process of the reporter gene assay was the same as that of Experimental Example 2.2.

[2] = tested on: diabetes mellitus+NASH model mice; assay: Diabetes mellitus + non-alcoholic steatohepatitis (NASH) model; assay type: in vivo, mouse; details: for AHDL (high density lipoprotein) / ALDL (low density lipoprotein) / ALT / AST / BUN / CHOL (total cholesterol) / CK / CREA / TGL (triglycerides) / activity of lowering triglycerides (in words) / total cholesterol content in blood (in words): 50 mg/kg intragastric once a day for 28 days; for blood glucose level: 50 mg/kg intragastric once a day for 28 days (FIG. 9); for body fat content (MRI): 50 mg/kg intragastric once a day for 28 days (FIG. 10); for fat content in liver (Oil red O and H.E. staining): 50 mg/kg intragastric once a day for 28 days (FIGS. 12A-12B); for blood glucose level 14 days after the administration: 50 mg/kg intragastric once a day, day 14; for weight ratio of epididymal white fat: 50 mg/kg intragastric once a day for 28 days (FIG. 11)
Description: Animal model: Each db/db mouse was injected subcutaneously with 40% CCl4 solution (Beijing Tongguang Fine Chemical Co., Ltd.) at a dose of 0.72 mg/100 g for 4 consecutive weeks to obtain a diabetes mellitus+NASH model. In the experiment, 35 of the above model mice were used, and animals with blood glucose of about 7 to 13 mmol/L were selected. According to their blood glucose levels, they were randomly divided into a blank control group, a model group, a BJMU group (gemfibrozil), a BJMU-1 group, a BJMU-2 Group and a BJMU-3 group, 7 animals in each group (the model group and each administration group were modeled according to the animal modeling method). Intragastric administration was adopted with an administration volume of 10 ml/kg. The blank control group and the model group were administrated with 1% Tween 80-saline; the BJMU group was administrated with a dose of 50 mg/kg, the BJMU-1 group was administrated with a dose of 50 mg/kg, the BJMU-2 group was administrated with a dose of 50 mg/kg, and the BJMU-3 group was administrated with a dose of 50 mg/kg. The administration was performed once a day for 28 consecutive days. From the day of oral administration, the physiological changes of the animals were observed every day. Blood glucose was measured every week, and blood glucose difference (Δ) was calculated by the following formula: blood glucose difference (Δ)=the blood glucose of the day—the initial blood glucose (the initial blood glucose difference was zero). After the administration, the animals were sacrificed, and the internal organs and epididymal fat were taken out for experiments. White epididymal fat was taken from each group of mice and weighed. According to the corresponding body weight, the weight ratio of white fat was calculated. Before the mice were sacrificed, 3 mice in each group were randomly selected and subjected to magnetic resonance imaging (MRI) (EchoMRI-700 body fat tester) so as to measure body fat content. For mice in each experimental group, blood was collected and serum was separated, and liver was taken for wet-weight measurement after necropsy; liver tissue was taken and fixed for pathological examination, H.E. staining and oil red O staining (Wuhan Zishan Biotechnology Co., Ltd.) were performed, and mouse liver lesions were observed under light microscope; routine examination of blood was performed by Animal Laboratory Department, Health Science Center of Peking University to measure the following indexes: white blood cell count (WBC), red blood cell count (RBC), lymphocyte count (LY), platelet (PLT) and so on; biochemical laboratory examination of blood was performed by Laboratory Medicine, Third Hospital, Peking University to measure the following indexes: triglycerides (TG), total cholesterol (T-CHO), high-density lipoprotein cholesterol (HDL-C), low-density lipoprotein cholesterol (LDL-C) and so on.

ACOX1 = ACOX1 mRNA expression by real-time quantitative PCR in HepG2; assay type: cell-based, human; details: 1 μM, 6 hours, HepG2 (FIG. 5D)
Excerpt: as §1, §2

Row | SMILES | PGC1α mRNA expression (PGC1α) | ARE reporter gene activity [1] | AHDL (high density lipoprotein) [2] | ALDL (low density lipoprotein) [2] | ALT [2] | AST [2] | BUN [2] | CHOL (total cholesterol) [2] | CK [2] | CREA [2] | TGL (triglycerides) [2] | activity of lowering triglycerides (in words) [2] | blood glucose level [2] | body fat content (MRI) [2] | fat content in liver (Oil red O and H.E. staining) [2] | blood glucose level 14 days after the administration [2] | ACOX1 mRNA expression (ACOX1) | total cholesterol content in blood (in words) [2] | weight ratio of epididymal white fat [2]
1 | Cc1cc(OCCCC(C)(C)C(=O)O)c(C)cc1Cl [BJMU-1, 5-(4-chloro-2,5-dimethylphenoxy)-2,2-dimethylpentanoic acid] | significantly induced PGC1α mRNA expression | could significantly activate the ARE reporter gene activity | 2.34 ± 0.24 mmol/L | 0.49 ± 0.06 mmol/L | 114.86 ± 51.2 U/L | 216.43 ± 60.6 U/L | 9.89 ± 1.31 mmol/L | 4.85 ± 0.7 mmol/L | 1297.71 ± 814.48 U/L | 19 ± 1.63 µmol/L | 1.77 ± 0.65 mmol/L | had better activity of lowering triglycerides than gemfibrozil | could significantly reduce the blood glucose level | could significantly reduce the body fat content | could significantly reduce the fat content in liver | almost returned to the normal level | significantly induced ACOX1 mRNA expression | – | –
2 | Cc1cc(OCCCC(C)(C)C(=O)O)c(C)cc1Br [BJMU-2, 5-(4-bromo-2,5-dimethylphenoxy)-2,2-dimethylpentanoic acid] | significantly induced PGC1α mRNA expression | could significantly activate the ARE reporter gene activity | 2.15 ± 0.29 mmol/L | 0.48 ± 0.05 mmol/L | 115.57 ± 39.12 U/L | 233.67 ± 47.75 U/L | 11.95 ± 1.81 mmol/L | 3.78 ± 0.45 mmol/L | 1406.33 ± 458.77 U/L | 22.5 ± 7.12 µmol/L | 1.73 ± 0.41 mmol/L | had better activity of lowering triglycerides than gemfibrozil | could significantly reduce the blood glucose level | could significantly reduce the body fat content | could significantly reduce the fat content in liver | almost returned to the normal level | significantly induced ACOX1 mRNA expression | could reduce total cholesterol content in blood | could significantly reduce the weight ratio of mouse epididymal fat
3 | Cc1cc(OCCCC(C)(C)C(=O)O)c(C)cc1F [BJMU-3, 5-(4-fluoro-2,5-dimethylphenoxy)-2,2-dimethylpentanoic acid] | significantly induced PGC1α mRNA expression | could significantly activate the ARE reporter gene activity | 2.27 ± 0.84 mmol/L | 0.52 ± 0.14 mmol/L | 125.14 ± 51.99 U/L | 257 ± 83 U/L | 9.29 ± 3.44 mmol/L | 4.42 ± 1.77 mmol/L | 1674.71 ± 864.05 U/L | 21.33 ± 10.52 µmol/L | 1.86 ± 0.99 mmol/L | had better activity of lowering triglycerides than gemfibrozil | could significantly reduce the blood glucose level | could significantly reduce the body fat content | could significantly reduce the fat content in liver | almost returned to the normal level | significantly induced ACOX1 mRNA expression | – | could significantly reduce the weight ratio of mouse epididymal fat
4 | Cc1ccc(C)c(OCCCC(C)(C)C(=O)O)c1 [gemfibrozil, Gemfibrozil, reference compound] | could not activate PGC1α expression | did not obviously activate the ARE | 2.68 ± 0.31 mmol/L | 0.7 ± 0.16 mmol/L | 134.14 ± 38.71 U/L | 235.14 ± 41.06 U/L | 11.96 ± 2.26 mmol/L | 5.37 ± 0.88 mmol/L | 1222.14 ± 392.96 U/L | 22.29 ± 3.45 µmol/L | 1.86 ± 0.66 mmol/L | – | did not exhibit significant hypoglycemic activity | did not show an activity of reducing body fat | did not exhibit the aforementioned activity | – | could not activate ACOX1 expression | did not show an activity of lowering total cholesterol in blood | –
